According to ChEMBL document CHEMBL3885881, “DrugMatrix”:

Species on record: Rattus norvegicus
Assay: DrugMatrix - Regimen: Daily Repeat
Type: toxicity, organism-based, Sprague-Dawley
Design: regimen Daily Repeat, gender Male, age 6-8 weeks
Conditions: in vivo, po, route oral GAVAGE, vehicle 100 % WATER; for ABSOLUTE BASOPHIL / ABSOLUTE EOSINOPHIL / ABSOLUTE LYMPHOCYTE / ABSOLUTE MONOCYTE / ABSOLUTE SEGMENTED NEUTROPHIL / BASOPHIL / EOSINOPHIL / ERYTHROCYTE COUNT / HEMATOCRIT / HEMOGLOBIN / LEUKOCYTE COUNT / LYMPHOCYTE / MEAN CORPUSCULAR HEMOGLOBIN / MEAN CORPUSCULAR HEMOGLOBIN CONCENTRATION / MEAN CORPUSCULAR VOLUME / MONOCYTE / NEUTROPHIL / NUCLEATED RED BLOOD CELLS / PLATELET COUNT: tissue Blood; for ALANINE AMINOTRANSFERASE / ALBUMIN / ALKALINE PHOSPHATASE / ASPARTATE AMINOTRANSFERASE / BLOOD UREA NITROGEN / CARBON DIOXIDE / CHLORIDE / CHOLESTEROL / CREATINE PHOSPHOKINASE / CREATININE / GLUCOSE / LACTATE DEHYDROGENASE / LIPASE / PHOSPHORUS / POTASSIUM / SODIUM / TOTAL BILIRUBIN / TOTAL PROTEIN / URIC ACID: tissue Plasma
[1] = 58 mg/kg, 120 h, dose level Low, time 5 day
[2] = 1400 mg/kg, 72 h, dose level High, time 3 day
[3] = 1400 mg/kg, 120 h, dose level High, time 5 day

With `Cc1cn([C@H]2C=C[C@@H](CO)O2)c(=O)[nH]c1=O` [STAVUDINE] the “ABSOLUTE BASOPHIL” value [1] was 0 CELLS/uL, the “ABSOLUTE EOSINOPHIL” value [1] was 94.33 CELLS/uL and the “ABSOLUTE LYMPHOCYTE” value [1] was 9260.33 CELLS/uL. For the same compound, the “ABSOLUTE MONOCYTE” value [1] was 0 CELLS/uL, the “ABSOLUTE SEGMENTED NEUTROPHIL” value [1] was 878.67 CELLS/uL and the BASOPHIL [1] was 0%. For the same compound, the EOSINOPHIL [1] was 1%, the “ERYTHROCYTE COUNT” value [1] was 5.68 x10E6/uL and the HEMATOCRIT [1] was 35.3%. The HEMOGLOBIN [1] was 13.67 G/DL, the “LEUKOCYTE COUNT” value [1] was 10.23 x10E3/uL and the LYMPHOCYTE [1] was 90%. The “MEAN CORPUSCULAR HEMOGLOBIN” value [1] was 24.17 pg, the “MEAN CORPUSCULAR HEMOGLOBIN CONCENTRATION” value [1] was 38.73 G/DL and the “MEAN CORPUSCULAR VOLUME” value [1] was 62.33 fL. The MONOCYTE [1] was 0%, the NEUTROPHIL [1] was 9% and the “NUCLEATED RED BLOOD CELLS” value [1] was 0.33 /100WBC. The “PLATELET COUNT” value [1] was 999.33 x10E3/uL, the “ALANINE AMINOTRANSFERASE” value [1] was 49 u/L and the ALBUMIN [1] was 4.1 G/DL. The “ALKALINE PHOSPHATASE” value [1] was 425 u/L, the “ASPARTATE AMINOTRANSFERASE” value [1] was 86.33 u/L and the “BLOOD UREA NITROGEN” value [1] was 14.33 mg/dL. The “CARBON DIOXIDE” value [1] was 28.33 mmol/L, the CHLORIDE [1] was 104 MEQ/L and the CHOLESTEROL [1] was 72.33 mg/dL. For the same compound, the “CREATINE PHOSPHOKINASE” value [1] was 506.33 u/L, the CREATININE [1] was 0.15 mg/dL and the GLUCOSE [1] was 173.33 mg/dL. The “LACTATE DEHYDROGENASE” value [1] was 155.33 u/L, the LIPASE [1] was 8.67 u/L and the PHOSPHORUS [1] was 11.87 mg/dL. The POTASSIUM [1] was 5.3 MEQ/L, the SODIUM [1] was 146.7 MEQ/L and the “TOTAL BILIRUBIN” value [1] was 0.17 mg/dL. For the same compound, the “TOTAL PROTEIN” value [1] was 6.03 G/DL, the “URIC ACID” value [1] was 0.67 mg/dL and the “ABSOLUTE BASOPHIL” value [2] was 0 CELLS/uL. The “ABSOLUTE EOSINOPHIL” value [2] was 0 CELLS/uL, the “ABSOLUTE LYMPHOCYTE” value [2] was 15246 CELLS/uL and the “ABSOLUTE MONOCYTE” value [2] was 148.33 CELLS/uL. The “ABSOLUTE SEGMENTED NEUTROPHIL” value [2] was 1072.33 CELLS/uL, the BASOPHIL [2] was 0% and the EOSINOPHIL [2] was 0%. The “ERYTHROCYTE COUNT” value [2] was 5.98 x10E6/uL, the HEMATOCRIT [2] was 37.4% and the HEMOGLOBIN [2] was 14.87 G/DL. For the same compound, the “LEUKOCYTE COUNT” value [2] was 16.47 x10E3/uL, the LYMPHOCYTE [2] was 92.67% and the “MEAN CORPUSCULAR HEMOGLOBIN” value [2] was 24.9 pg. For the same compound, the “MEAN CORPUSCULAR HEMOGLOBIN CONCENTRATION” value [2] was 39.77 G/DL, the “MEAN CORPUSCULAR VOLUME” value [2] was 62.67 fL and the MONOCYTE [2] was 1%. For the same compound, the NEUTROPHIL [2] was 6.33%, the “NUCLEATED RED BLOOD CELLS” value [2] was 0 /100WBC and the “PLATELET COUNT” value [2] was 998.33 x10E3/uL. For the same compound, the “ALANINE AMINOTRANSFERASE” value [2] was 113.67 u/L, the ALBUMIN [2] was 3.93 G/DL and the “ALKALINE PHOSPHATASE” value [2] was 510.67 u/L. The “ASPARTATE AMINOTRANSFERASE” value [2] was 191 u/L, the “BLOOD UREA NITROGEN” value [2] was 12.33 mg/dL and the “CARBON DIOXIDE” value [2] was 27 mmol/L. The CHLORIDE [2] was 100.67 MEQ/L, the CHOLESTEROL [2] was 97.33 mg/dL and the “CREATINE PHOSPHOKINASE” value [2] was 237.67 u/L. The CREATININE [2] was 0.15 mg/dL, the GLUCOSE [2] was 155 mg/dL and the “LACTATE DEHYDROGENASE” value [2] was 355 u/L. It also gave an LIPASE [2] of 11.33 u/L, a PHOSPHORUS [2] of 12.77 mg/dL and a POTASSIUM [2] of 6.93 MEQ/L. For the same compound, the SODIUM [2] was 142.73 MEQ/L, the “TOTAL BILIRUBIN” value [2] was 0.23 mg/dL and the “TOTAL PROTEIN” value [2] was 5.63 G/DL. The “URIC ACID” value [2] was 1.47 mg/dL, the “ABSOLUTE BASOPHIL” value [3] was 0 CELLS/uL and the “ABSOLUTE EOSINOPHIL” value [3] was 247.33 CELLS/uL. The “ABSOLUTE LYMPHOCYTE” value [3] was 16216.67 CELLS/uL, the “ABSOLUTE MONOCYTE” value [3] was 311.33 CELLS/uL and the “ABSOLUTE SEGMENTED NEUTROPHIL” value [3] was 2358 CELLS/uL. For the same compound, the BASOPHIL [3] was 0%, the EOSINOPHIL [3] was 1.33% and the “ERYTHROCYTE COUNT” value [3] was 5.64 x10E6/uL. The HEMATOCRIT [3] was 35.57%, the HEMOGLOBIN [3] was 13.87 G/DL and the “LEUKOCYTE COUNT” value [3] was 19.13 x10E3/uL. The LYMPHOCYTE [3] was 84.67%, the “MEAN CORPUSCULAR HEMOGLOBIN” value [3] was 24.6 pg and the “MEAN CORPUSCULAR HEMOGLOBIN CONCENTRATION” value [3] was 39 G/DL. The “MEAN CORPUSCULAR VOLUME” value [3] was 63.1 fL, the MONOCYTE [3] was 1.67% and the NEUTROPHIL [3] was 12.33%. For the same compound, the “NUCLEATED RED BLOOD CELLS” value [3] was 0 /100WBC, the “PLATELET COUNT” value [3] was 1296.67 x10E3/uL and the “ALANINE AMINOTRANSFERASE” value [3] was 50.33 u/L. The ALBUMIN [3] was 4.17 G/DL, the “ALKALINE PHOSPHATASE” value [3] was 429.33 u/L and the “ASPARTATE AMINOTRANSFERASE” value [3] was 75 u/L. For the same compound, the “BLOOD UREA NITROGEN” value [3] was 14.67 mg/dL, the “CARBON DIOXIDE” value [3] was 23 mmol/L and the CHLORIDE [3] was 102 MEQ/L. For the same compound, the CHOLESTEROL [3] was 81.67 mg/dL, the “CREATINE PHOSPHOKINASE” value [3] was 207 u/L and the CREATININE [3] was 0.21 mg/dL. For the same compound, the GLUCOSE [3] was 162 mg/dL, the “LACTATE DEHYDROGENASE” value [3] was 128.33 u/L and the LIPASE [3] was 11.67 u/L. For the same compound, the PHOSPHORUS [3] was 11 mg/dL, the POTASSIUM [3] was 5.59 MEQ/L and the SODIUM [3] was 145 MEQ/L. For the same compound, the “TOTAL BILIRUBIN” value [3] was 0.2 mg/dL, the “TOTAL PROTEIN” value [3] was 5.8 G/DL and the “URIC ACID” value [3] was 1.77 mg/dL.
